# Measurements reported in US6603046B1, “Bis-aromatic a,β-unsaturated ketones” (Lica Pharmaceuticals A/S, priority 1992, dated 2003).
# Marks after values point to notes of the source that are not given here.
# What was measured:
# [1] = system: Staphylococcus aureus ATCC 25923; assay: MIC, macrodilution (Example 17); type: cell-based; conditions: ATCC25923
# [2] = system: human PMN; assay: Zymosan-enhanced chemiluminescence, PMN; type: cell-based; conditions: read-out: percentage inhibition of chemiluminescence response to opsonized zymosan (mean ± SEM)
# Protocol: (§1) Chemiluminescence. Monocytes were prepared from heparinized blood by metrizoate sodium-Ficoll (the same as lymphocyte proliferation). Polymorphonuclear leucocytes (PMN) were prepared from heparinized blood by dextran sedimentation and metrizoate sodium-Ficoll separation. Remaining erythrocytes were removed by hypotonic lysis. A zymosan-enhanced chemiluminescence assay was used. The assay was performed in a total volume of 5.5 ml at ambient temperature in glass scintillation vials. A Beckman L 8000 scintillation counter (placed under air-conditioned, thermostat controlled, 21±1° C. conditions) was used in the out-of-coincidence mode A 1.1 ml portion of PMN or monocyte suspension (1×10^6 cells per ml) was pre-incubated with 1.1 ml of various concentrations of licochalcone A for 30 min at 37° C. in a rotor at 20 rpm Luminol (5-amino-2,3-dihydro-1,4-phatalazinedione) obtained from Sigma Chemical Co., St Louis, Mo., U.S.A., was maintained as a stock solution of 10 mg/ml in NaOH (0.1 N) and diluted in Krebs-Ringer solution immediately before use. Each vial contained 5×10^5 pre-incubated PMN or monocyte, 4 mg of opsonized zymosan (Sigma), 50 μl of luminol solution, and 4.45 ml of Krebs-Ringer solution containing 5 mM glucose. The final concentration of luminol in the assay mixture was 5×10^−8m.
# [3] = system: L. major amastigotes in U937 cells; assay: L. major amastigotes in U937 cells, microscopic counting (Example 7); type: cell-based, Leishmania major
# [4] = system: L. major promastigotes; assay: Electron microscopy of L. major promastigotes (Example 11); type: cell-based, Leishmania major; conditions: for diameter of mitochondria, Maximum (mean) / diameter of mitochondria, Minimum (mean): 24 hours
# [5] = Toxicity study in rats, peroral (Example 21); type: in vivo
# Protocol: Study in rats. To 4 rats was administered one dose of 1000 mg per kg body weight perorally.
# [6] = system: Eimeria tenella; assay: Anticoccidial activity in chickens infected with Eimeria tenella (Example 28); type: in vivo
# [7] = system: human monocytes; assay: Zymosan-enhanced chemiluminescence, monocytes; type: cell-based; conditions: Monocyte, read-out: percentage inhibition of chemiluminescence response to opsonized zymosan (mean ± SEM)
# Protocol: as §1
# [8] = system: BCG; type: cell-based; conditions: n = 3
# [9] = system: L. major in U937 cells; assay: Intracellular parasite killing, parasite survival index (PSI); type: cell-based, Leishmania major; conditions: 1 μg/ml
# Protocol: Killing was quantified by a modification of a technique described by Berman et al.
# Briefly, 3 days after infection, microtiter well cultures were rinsed once with medium, exposed to 100 μl of prewarmed (37° C.) 0.01% sodium dodecyl-sulfate (SDS) in medium RPMI 1640, and returned to 34° C. for 15 min. By this procedure, macrophages were lysed, according to microscopic observation, and amastigotes were released. 100 μl of medium RPMI 1640 with 20% HFCS were added to each well without removal of the lysing solution. The plates were then transferred to a 26° C. incubator, and amastigotes were left to transform to promastigotes. After 48 h, parasite growth was recorded by adding 1 μCi of ^3H-thymidine (New England Nuclear Corp., Boston, Mass.) to each well. The parasites were harvested 24 h later on glass fiber filters with a harvesting machine (Skatron, Lierbyen, Norway), and ^3H-thymidine incorporation was measured in a liquid scintillation counter (Tricarb; Packard Instrument Co., Inc., Rockville, Md.). The parasite survival index (PSI) was determined. This index is the mean 3H-thymidine incorporation (cpm) in treated infected cells as compared with the untreated infected cells. [formula]
# [10] = Absorption study in rats, oral, serum concentration (Example 20); type: in vivo
# Protocol: The absorption pattern and pharmaco-kinetics of licochalcone A in rats given by oral route were determined compared with pharmacokinetics of licochalcone A in rats given intravenously.
# Number of rats: 4 for each group […]
# Route: Oral, adminitered once.
# Sample: 2 ml of blood was drawn 4 times from each rat.
# Serum or plasma was diluted with one part of acetonitrile, left for 15 min at 4° C., and centrifugated for 3 min at 10,000 g. An aliquot of the supernatant was chromatographed at 37° C. by HPLC over Spherisorb ODS-2 (5 μm, 120×4.5 mm, Phase Separation LTD, UK) using acetonitrile aqueous acetic acid, 2%, (1:1) as an eluent, flow rate 1.5 ml/min, and UV detection (370 nm and 254 nm).
# [11] = Reaction with glutathione, HPLC (Example 26); type: physicochemical; conditions: acetonitrile-phosphate buffer (1:3), 7 days, ambient temperature
# Protocol: Formation of glutathione conjugates of licochalcone A. A solution of 1.5 mg of licochalcone A and 100 mg of glutathione in acetonitrile-0.13 M aqueous potassium phosphate buffer solution pH 75 (1:3) was left for 7 days at ambient temperature protected from light.
# [12] = 3 days after infection, 0.5 μg/ml
# [13] = 3 days after infection, 1 μg/ml
# [14] = 6 days after infection, 0.5 μg/ml
# [15] = 6 days after infection, 1 μg/ml
# [16] = amount of feed consumed per kg chicken weight gain, doses as Table 28.1
# [17] = in feed: salinomycin 70 ppm, 2,5 m4′ac and 2,4 mc 30 mg/kg/day, licochalcone A 10 mg/kg/day
smiles,measurement,setting,value
"C=CC(C)(C)c1cc(/C=C/C(=O)c2ccc(O)cc2)c(OC)cc1O [Licochalcone A, licochalcone A]",MIC,[1],18 µg/mL
same,inhibition at 1 µg/mL,[2]; 1 μg/ml,2.1 ± 3.3%
same,inhibition at 2 µg/mL,[2]; 2 μg/ml,10.3 ± 3.3%
same,inhibition at 5 µg/mL,[2]; 5 μg/ml,18.9 ± 3.7%
same,inhibition at 10 µg/mL,[2]; 10 μg/ml,29.7 ± 4.8%
same,inhibition at 20 µg/mL,[2]; 20 μg/ml,47 ± 4.3%
same,% of amast.,[3]; [12],96.6%
same,% of infec. cells,[3]; [12],28.0%
same,amast. per cell,[3]; [12],2.3
same,proma per cell,[3]; [12],0.1
same,total amast.,[3]; [12],65.0 ×10^6
same,total proma.,[3]; [12],2.3 ×10^6
same,% of amast.,[3]; [13],91.2%
same,% of infec. cells,[3]; [13],19.0%
same,amast. per cell,[3]; [13],2.0
same,proma per cell,[3]; [13],0.2
same,total amast.,[3]; [13],38.3 ×10^6
same,total proma.,[3]; [13],3.7 ×10^6
same,% of infec. cells,"[3]; 3 days after infection, 5 μg/ml",0%
same,% of infec. cells,"[3]; 3 days after infection, 10 μg/ml",0%
same,% of amast.,[3]; [14],100%
same,% of infec. cells,[3]; [14],13.7%
same,amast. per cell,[3]; [14],3.1
same,proma per cell,[3]; [14],0
same,total amast.,[3]; [14],42.0 ×10^6
same,total proma.,[3]; [14],0 ×10^6
same,% of amast.,[3]; [15],100%
same,% of infec. cells,[3]; [15],3.0%
same,amast. per cell,[3]; [15],1.8
same,proma per cell,[3]; [15],0
same,total amast.,[3]; [15],5.3 ×10^6
same,total proma.,[3]; [15],0 ×10^6
same,% of infec. cells,"[3]; 6 days after infection, 5 μg/ml",0%
same,% of infec. cells,"[3]; 6 days after infection, 10 μg/ml",0%
same,morphological changes of promastigotes,[4]; 1 μg/ml,no morphological changes
same,"diameter of mitochondria, Maximum (mean)",[4]; 1 μg/ml,203 nm
same,"diameter of mitochondria, Minimum (mean)",[4]; 1 μg/ml,104 nm
same,"diameter of mitochondria, Maximum (mean)",[4]; 5 μg/ml,548 nm
same,"diameter of mitochondria, Minimum (mean)",[4]; 5 μg/ml,165 nm
same,percentage of L. major showing cytoplasmic granules,"[4]; 5 μg/ml, control 50%",70%
same,"diameter of mitochondria, Maximum (mean)",[4]; 10 μg/ml,1043 nm
same,"diameter of mitochondria, Minimum (mean)",[4]; 10 μg/ml,294 nm
same,deaths within one week,"[5]; 4 rats, one dose of 1000 mg per kg perorally",None of the animals died
same,LD50 peroral,[5]; rats,> 1000 mg per kg
same,percentages of chickens showing pathological signs versus infected control group,[6]; 10 mg/kg/day in feed,much lower
same,feed consumption after 7 days of treatment,[6]; [16],1.26
same,feed consumption after 14 days of treatment,[6]; [16],1.31
same,Weight gain in 7 days after initiation of treatment,[6]; [17],414 grams per chicken
same,Weight gain in 14 days after initiation of treatment,[6]; [17],864^b grams per chicken
same,Difference in weight gain to group 5 (control infected) after treatment for 14 days,[6]; normal variation ±2%,^bDifference between groups 4 (licochalcone A) and 5 (control infected) after treatment for 14 days is 7.6%.
same,Mortality,"[6]; number of chickens, groups of 35, licochalcone A 20",0
same,inhibition at 1 µg/mL,[7]; 1 μg/ml,8.2 ± 3.3%
same,inhibition at 2 µg/mL,[7]; 2 μg/ml,7.8 ± 6.5%
same,inhibition at 5 µg/mL,[7]; 5 μg/ml,24.8 ± 5.3%
same,inhibition at 10 µg/mL,[7]; 10 μg/ml,37.9 ± 3.1%
same,inhibition at 20 µg/mL,[7]; 20 μg/ml,56.5 ± 3.8%
same,meanMIC,[8],meanMIC = 8.6 μg/ml
same,meanMIC (second line),[8],meanMIC = 40 μg/ml (n = 3)
same,rangeMIC,[8],rangeMIC = 5-10 /ml (n = 3)
same,PSI index,[9],about 5%
same,concentration in serum,"[10]; 4 hours after oral administration, 1000 mg per kg as printed",160 ng/mL
same,concentration at 24 h,"[10]; rat, serum, oral, 1000 mg per kg, after 24 hours, detection limit of the assay",< 50 ng/mL
same,concentration at 4 h,"[10]; rat, serum, po, 1000 mg per kg, 4 hours after oral administration, 1000 mg per kg as printed",140 ng/mL
same,reaction with glutathione,[11],decreased amounts of licochalcone A and appearance of two new peaks
